Measurements reported in patent US8637252B2, “Methods and compositions for determining altered susceptibility of HIV-1 to anti-HIV drugs” (Monogram Biosciences, Inc., priority 2011, dated 2014).

Tests used:
[1] = tested on: HIV-1 (PRRT-RH segment of patient sample 62); assay: phenotypic drug resistance test, PRRT-RH amplicon of sample 62; assay type: cell-based
From the text: Patient-derived segment(s) corresponding to the entire pol gene, encoding HIV protease, reverse transcriptase (including RNAse H), and integrase (hereinafter “POL”), the portion of pol encoding amino acids 1-305 of reverse transcriptase (hereinafter “PR-RT”), the portion of pol encoding amino acids 319-440 of reverse transcriptase (including RNAse H), and integrase (hereinafter “RHIN”), were amplified by the reverse transcription-polymerase chain reaction method (RT-PCR) using viral RNA isolated from viral particles present in the plasma or serum of HIV-infected individuals as described below. The portion of pol encoding protease, amino acids 1-531 of reverse transcriptase (including RNase H) (hereinafter “PRRT-RH”), or the portion of pol encoding protease, reverse transcriptase (including RNAse H) and integrase (hereinafter “PRRT-RHIN”), were assembled from amplicons described above by standard recombinant DNA techniques involving a KpnI restriction site at amino acid 400 or a Pin A1 site at amino acid 315.
Drug resistance tests performed with test vectors were carried out using packaging host and target host cells consisting of the human embryonic kidney cell line 293.
Resistance tests were carried out with the RTV libraries by using viral particles comprising the RTV libraries to infect a host cell in which the expression of the indicator gene is measured. The amount of indicator gene (luciferase) activity detected in infected cells is used as a direct measure of “infectivity,” i.e., the ability of the virus to complete a single round of replication. Thus, drug resistance or sensitivity can be determined by plotting the amount of luciferase activity produced by patient derived viruses in the presence of varying concentrations of the antiviral drug. By identifying the concentration of drug at which luciferase activity is half-maximum, the IC50 of the virus from which patient-derived segment(s) were obtained for the antiretroviral agent can be determined. […]

[2] = tested on: HIV-1 NL4-3 site-directed reverse transcriptase mutants; assay: phenotypic drug resistance test, site-directed reverse transcriptase mutants in NL4-3 background (POL segment assay); assay type: cell-based; settings: for resistance versus known NNRTI mutation(s) alone: any of N348I, T369I, E399D combined with G190S, K103N, or K103R and V179D, NL4-3 background
Description: Further, a site directed double mutant T3691/K103N was generated using conventional techniques and tested for resistance to an NNRTI using the methods described above.
To assess the effects of mutations at positions 348, 369, and 399, a series of site-directed mutants were constructed in an wild-type (NL4-3) background. The NNRTI susceptibility phenotypes of these mutants were then determined using the POL segment assay according to Example 2.
In particular, site-directed mutants were constructed in an NL4-3 background comprising N348I, T369I, E399D, or the combination of N3481 and T369I.
Next, a series of site-directed mutants were constructed to assess the effects of combinations of N3481, T369I, and E399D with previously recognized NNRTI resistance mutations. In particular, mutants comprising N348I, T369I, and E399D were made in combination with G190S, with K103N, and with the combination of K103R and V179D. The effects of these combinations on DLV, EFV, and NVP susceptibility were tested using the POL segment assay according to the method describe in Example 2. The results from these experiments are presented as FIG. 10.
To assess the specific effects of mutations at positions 348, 369, and 399, a series of site-directed mutants were constructed in an wild-type (NL4-3) background. The AZT susceptibility phenotype of these mutants were then determined with a POL segment assay according to Example 2.
In particular, site-directed mutants were constructed in an NL4-3 background comprising N348I, T3691, E399D, or the combination of N348I and T3691. The FC in AZT susceptibility for each mutant is shown as FIG. 13.

Row | SMILES | Fold Change in IC50, PRRT-RH amplicon [1] [fold] | FC in susceptibility relative to NL4-3, versus G190S mutant ([2]; G190S and E399D combination mutant) | resistance versus known NNRTI mutation(s) alone [2] | resistance of mutant ([2]; site-directed double mutant T369I/K103N)
1 | CC(C)Nc1cccnc1N1CCN(C(=O)c2cc3cc(NS(C)(=O)=O)ccc3[nH]2)CC1 [DLV, delavirdine] | 250.00 | the same FC |  | 
2 | O=C1Nc2ccc(Cl)cc2[C@@](C#CC2CC2)(C(F)(F)F)O1 [EFV, efavirenz] | 276.90 |  | increased | 
3 | Cc1ccnc2c1NC(=O)c1cccnc1N2C1CC1 [NVP, nevirapine] | 400.00 |  | increased | enhanced resistance
